The results in this text go back to patent publication EP0674651B1, “SUBSTITUTED 6-AZAANDROSTENONES” (priority 1992, dated 1994).

As usually defined, the IC50 is the concentration that gives 50% inhibition.

In assay [1] the target is Rat Prostatic 5α-reductase. As to the kind of experiment: 5α-reductase in vitro inhibitory activity, rat prostatic. The note with it: read-out: IC50 Rat Prostatic; microsomes derived from prostate tissue from the rat.
Method: (§1) Microsomes were prepared by homogenization of the tissue or cells, followed by differential centrifugation of the homogenate. […] Corresponding incubations were carried out with no test compound as a control study.
(§2) The percentage of conversion of testosterone to DHT in the presence of test compounds compared to the corresponding conversion in the control study was estimated using high pressure liquid chromatography (HPLC) with radiochemical detection.
In assay [2] the target is T1, human type 2 5α-reductase (Homo sapiens, UniProt P31213).
T1 sequence (P31213 1-254): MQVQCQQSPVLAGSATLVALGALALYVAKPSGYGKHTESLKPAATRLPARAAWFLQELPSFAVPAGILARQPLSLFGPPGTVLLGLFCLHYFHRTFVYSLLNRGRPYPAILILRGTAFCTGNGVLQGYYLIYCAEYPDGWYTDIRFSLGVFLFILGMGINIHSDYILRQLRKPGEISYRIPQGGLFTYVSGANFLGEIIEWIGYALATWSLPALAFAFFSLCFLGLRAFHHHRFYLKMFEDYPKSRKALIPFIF
As to the kind of experiment: 5α-reductase in vitro inhibitory activity, human type 2.
Method: as §1, §2

For assay [3], the target named is T2, human type 1 5α-reductase (Homo sapiens, UniProt P18405).
T2 sequence (P18405 1-259): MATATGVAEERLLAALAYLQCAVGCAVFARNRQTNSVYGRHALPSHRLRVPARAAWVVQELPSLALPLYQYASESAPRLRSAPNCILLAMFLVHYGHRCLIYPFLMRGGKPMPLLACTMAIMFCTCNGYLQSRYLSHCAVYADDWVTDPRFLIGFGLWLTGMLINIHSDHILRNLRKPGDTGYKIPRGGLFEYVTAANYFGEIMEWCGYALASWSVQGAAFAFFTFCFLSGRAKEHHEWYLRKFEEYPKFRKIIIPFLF
As to the kind of experiment: 5α-reductase in vitro inhibitory activity, human type 1.
Method: as §1
For type 2 IC50 measurements, assay components except testosterone were preincubated for 20 minutes at pH 6.0, and following the addition of 8nM testosterone the assays were allowed to proceed for 20-40 minutes. The percentage of conversion of testosterone to DHT in the presence of test compounds compared to the corresponding conversion in the control study was estimated using high pressure liquid chromatography (HPLC) with radiochemical detection.

Turning to `C[C@]12CC[C@H]3[C@@H](CNC4=CC(=O)CC[C@@]43C)[C@@H]1CC[C@@H]2C(=O)NCC1CCCCC1` [Compound 31, 17β-methylenecyclohexyl-carbamoyl-6-azaandrost-4-en-3-one], the IC50 was < 10 nM in assay [1], < 10 nM in assay [2] and 10 to 100 nM in assay [3].
As for `Cc1cc(C(C)(C)C)cc(C)c1NC(=O)[C@H]1CC[C@H]2[C@@H]3CNC4=CC(=O)CC[C@]4(C)[C@H]3CC[C@]12C` [Compound 48, 17β-N-(2,6-Dimethyl-4-t-butyl)phenyl-carbamoyl-6-azaandrost-4-en-3-one], the IC50 in assay [1] was 10 to 100 nM; in assay [2], < 10 nM; in assay [3], < 10 nM.
For the molecule `CC(C)c1cccc(C(C)C)c1NC(=O)[C@H]1CC[C@H]2[C@@H]3CNC4=CC(=O)C=C[C@]4(C)[C@H]3CC[C@]12C` [Compound 93, 17β-N-(2,6-Di-i-propyl)phenyl-carbamoyl-6-azaandrost-1,4-dien-3-one], the figures for the IC50 in assay [1], in assay [2] and in assay [3] were > 100 nM, < 10 nM and 10 to 100 nM, respectively.
In the same order, the values of `C[C@]12CC[C@H]3[C@@H](CNC4=CC(=O)CC[C@@]43C)[C@@H]1CC[C@@H]2C(=O)Nc1ccccc1Br` [Compound 52, 17β-N-(2-Bromo)phenyl-carbamoyl-6-azaandrost-4-en-3-one] are 10 to 100 nM, < 10 nM and 10 to 100 nM.
In the same order, the values of `C[C@]12CC[C@H]3[C@@H](CNC4=CC(=O)CC[C@@]43C)[C@@H]1CC[C@@H]2C(=O)Nc1cc(C(F)(F)F)ccc1C(F)(F)F` [Compound 50, 17β-N-(2,5-Ditrifluoromethyl)phenyl-carbamoyl-6-azaandrost-4-en-3-one] are 10 to 100 nM, < 10 nM and < 10 nM.
In the same order, the values of `CC(C)(Cc1ccc(F)cc1)NC(=O)[C@H]1CC[C@H]2[C@@H]3CNC4=CC(=O)CC[C@]4(C)[C@H]3CC[C@]12C` [Compound 32, 17β-N-(1,1-Dimethyl)-2-(4-fluorophenyl)ethyl-carbamoyl-6-azaandrost-4-en-3-one] are < 10 nM, < 10 nM and 10 to 100 nM.
On to `C[C@]12CC[C@H]3[C@@H](CNC4=CC(=O)CC[C@@]43C)[C@@H]1CC[C@@H]2C(=O)NCc1ccc(C(F)(F)F)cc1` [Compound 30, 17β-N-(4-Trifluoromethylphenyl)methyl-carbamoyl-6-azaandrost-4-en-3-one], for which the IC50 in assay [1] is 10 to 100 nM; in assay [2], < 10 nM; in assay [3], 10 to 100 nM.
In the case of `C[C@]12CC[C@H]3[C@@H](CNC4=CC(=O)CC[C@@]43C)[C@@H]1CC[C@@H]2C(=O)Nc1ccccc1-c1ccccc1` [Compound 53, 17β-N-(2-Phenyl)phenyl-carbamoyl-6-azaandrost-4-en-3-one], the results for the IC50 in assay [1], in assay [2] and in assay [3] were < 10 nM, < 10 nM and 10 to 100 nM, respectively.
Take `CC(C)(C)c1cc(NC(=O)[C@H]2CC[C@H]3[C@@H]4CNC5=CC(=O)CC[C@]5(C)[C@H]4CC[C@]23C)cc(C(C)(C)C)c1` [Compound 86, 17β-N-(3,5-Di-t-butyl)phenyl-carbamoyl-6-azaandrost-4-en-3-one]: the IC50 in assay [2] and in assay [3] was < 10 nM in each case.
Regarding `Cc1cccc(C(C)(C)C)c1NC(=O)[C@H]1CC[C@H]2[C@@H]3CNC4=CC(=O)CC[C@]4(C)[C@H]3CC[C@]12C` [Compound 62, 17β-N-(2-t-Butyl-6-methyl)phenyl-carbamoyl-6-azaandrost-4-en-3-one], the IC50 was < 10 nM in assay [2] and > 100 nM in assay [3].
For the molecule `C[C@]12CC[C@H]3[C@@H](CNC4=CC(=O)CC[C@@]43C)[C@@H]1CC[C@@H]2C(=O)NC1(c2ccc(Cl)cc2Cl)CC1` [Compound 101, 17β-N-1-(2,4-Dichlorophenyl)cyclopropyl-carbamoyl-6-azaandrost-4-en-3-one], the IC50 in assay [2] and in assay [3] was < 10 nM each time.
With `C[C@]12CC[C@H]3[C@@H](CNC4=CC(=O)CC[C@@]43C)[C@@H]1CC[C@@H]2C(=O)C1CC2CCC1C2` (stereo partly drawn) [Compound 68, 17β-(1-Oxo-1-(2-norbornyl)methyl)-6-azaandrost-4-en-3-one], the values for the IC50 in assay [2] and in assay [3] were < 10 nM and 10 to 100 nM, respectively.
The matching figures for `CC(C)(C)c1ccc(C2(NC(=O)[C@H]3CC[C@H]4[C@@H]5CNC6=CC(=O)CC[C@]6(C)[C@H]5CC[C@]34C)CCOCC2)cc1` [Compound 145, 17β-N-4-(4-t-Butylphenyl)tetrahydropyranyl-carbamoyl-6-azaandrost-4-en-3-one]: < 10 nM and < 10 nM.
The matching figures for `C[C@]12CC[C@H]3[C@@H](CNC4=CC(=O)CC[C@@]43C)[C@@H]1CC[C@@H]2C(=O)Nc1cc(C(F)(F)F)ccc1F` [Compound 129]: < 10 nM and 10 to 100 nM.
The matching figures for `C[C@]12CC[C@H]3[C@@H](CNC4=CC(=O)CC[C@@]43C)[C@@H]1CC[C@@H]2C(=O)Nc1c(Br)cc(Cl)cc1Br` [Compound 69, 17β-N-(2,6-Dibromo-4-chloro)phenyl-carbamoyl-6-azaandrost-4-en-3-one]: < 10 nM and 10 to 100 nM.
For the molecule `CC(C)(NC(=O)[C@H]1CC[C@H]2[C@@H]3CNC4=CC(=O)CC[C@]4(C)[C@H]3CC[C@]12C)c1ccccc1` [Compound 63, 17β-N-(1-Methyl-1-phenyl)ethyl-carbamoyl-6-azaandrost-4-en-3-one], the results for the 50% inhibitory concentration (IC50) in assay [2] and in assay [3] were < 10 nM and > 100 nM, respectively.
In the same order, the values of `CC(C)(C)c1ccc(C#N)cc1NC(=O)[C@H]1CC[C@H]2[C@@H]3CNC4=CC(=O)CC[C@]4(C)[C@H]3CC[C@]12C` [Compound 78, 17β-N-(2-t-Butyl-5-cyano)phenyl-carbamoyl-6-azaandrost-4-en-3-one] are < 10 nM and 10 to 100 nM.
On to `CC(C)(C)c1ccc(C2(NC(=O)[C@H]3CC[C@H]4[C@@H]5CNC6=CC(=O)CC[C@]6(C)[C@H]5CC[C@]34C)CCCCC2)cc1` [Compound 122, 17β-N-1-(4-t-Butylphenyl)cyclohexyl-carbamoyl-6-azaandrost-4-en-3-one], for which the half-inhibitory concentration (IC50) in assay [2] and in assay [3] was < 10 nM in each case.
Turning to `CCc1cccc(CC)c1NC(=O)[C@H]1CC[C@H]2[C@@H]3CNC4=CC(=O)CC[C@]4(C)[C@H]3CC[C@]12C` [Compound 76, 17β-N-(2,6-Diethyl)phenyl-carbamoyl-6-azaandrost-4-en-3-one], the IC50 in assay [2] is < 10 nM; in assay [3], 10 to 100 nM.
Consider `CC(C)(C)c1ccc(-c2ccccc2)cc1NC(=O)[C@H]1CC[C@H]2[C@@H]3CNC4=CC(=O)CC[C@]4(C)[C@H]3CC[C@]12C` [Compound 88, 17β-N-(2-t-Butyl-5-phenyl)phenyl-carbamoyl-6-azaandrost-4-en-3-one], for which the 50% inhibitory concentration (IC50) in assay [2] and in assay [3] was < 10 nM throughout.
In the case of `CC(C)(C)c1ccc(C(F)(F)F)cc1NC(=O)[C@H]1CC[C@H]2[C@@H]3CNC4=CC(=O)CC[C@]4(C)[C@H]3CC[C@]12C` [Compound 87, 17β-N-(2-t-Butyl-5-trifluoromethyl)phenyl-carbamoyl-6-azaandrost-4-en-3-one], the IC50 in assay [2] and in assay [3] was < 10 nM in each case.
Take `COc1ccc(C2(NC(=O)[C@H]3CC[C@H]4[C@@H]5CNC6=CC(=O)CC[C@]6(C)[C@H]5CC[C@]34C)CCCCC2)cc1` [Compound 111, 17β-N-1-(4-Methoxyphenyl)cyclohexyl-carbamoyl-6-azaandrost-4-en-3-one]: the IC50 in assay [2] and in assay [3] was < 10 nM throughout.
